Read-outs that look alike come from different tables or passages of the source.
Legend:
[1] = system: VERO E6 cells
[2] = system: wild type B.1 SARS-CoV-2; type: cell-based
[3] = in vitro; settings: monkey
[4] = DAA, concentration causing 10% cytotoxicity

Row | Molecule | CC10 Mean ± SD [1, 4] [µM] | CC50 ([1]; read-out: CC50 Mean ± SD, DAA) [µM] | IC50 ([2]; read-out: IC50 vs. B.1 Mean ± SD) [µM] | IC90 ([2]; read-out: IC90 vs. B.1 Mean ± SD) [µM] | CC50 [3] [µM] | CC10 Mean ± SD ([1]; mAb) [µg/mL] | CC50 Mean ± SD ([1]; mAb) [µg/mL] | IC90 vs. B.1 Mean ± SD [2] [µg/mL]
1 | O=c1nc(NO)ccn1[C@@H]1O[C@H](CO)[C@@H](O)[C@H]1O [EIDD-1931, reference compound] | 3.1 ± 0.4 | 43.3 ± 6 | 2.4 ± 0.4 | 2.5 ± 0.1 |  |  |  | 
2 | CC(C)(C)[C@H](NC(=O)C(F)(F)F)C(=O)N1C[C@H]2[C@@H]([C@H]1C(=O)N[C@H](C#N)C[C@@H]1CCNC1=O)C2(C)C [NRM, nirmatrelvir, reference compound] | 2.9 ± 0.2 |  |  |  | 40.7 ± 4 |  |  | 
3 | CCC(CC)COC(=O)[C@H](C)N[P@](=O)(OC[C@H]1O[C@@](C#N)(c2ccc3c(N)ncnn23)[C@H](O)[C@@H]1O)Oc1ccccc1 [RDV, remdesivir, reference compound] | 4.2 ± 0.6 |  |  |  | 17.2 ± 0.2 |  |  | 
4 | bebtelovimab |  |  |  |  |  | >0.06 | >0.06 | 0.089 ± 0.009
5 | cilgavimab |  |  |  |  |  | >0.36 | >0.36 | 1.385 ± 0.862
6 | sotrovimab |  |  |  |  |  | >2.4 | >2.4 | 1.718 ± 0.594
7 | tixagevimab |  |  |  |  |  | >0.36 | >0.36 | 0.305 ± 0.071
